Series [1] is described as follows: method code SF-HPLC, from DOI: 10.1023/a:1015956705293, PMID: 3244625.
Assay in series [2]: not given
The source holds these as a separate data set.

The nature of series [3]: method code SF-AS, from DOI: 10.1016/j.arabjc.2011.11.013.
Assay in series [4]: not given
The source holds these as a separate data set.

Series [5] can be described thus: method code SF-AS, from DOI: 10.1016/0378-5173(85)90003-1.
Assay in series [6]: not given
The source holds these as a separate data set.

Series [7] is described as follows: method code SF, from DOI: 10.1002/ps.2780350215.
The nature of series [8]: method code SF-HPLC, from DOI: 10.1023/a:1016359301852, PMID: 24271710.
Series [9] can be described thus: method code SF, from PMID: 26783178.
Assay in series [10]: not given
This is another data set of the same source.

Series [11] is described as follows: method code SF-HPLC, from DOI: 10.1016/j.ejps.2012.04.024, PMID: 22609526.
Series [12] can be described thus: method code SF-AS, from DOI: 10.1016/0006-2952(90)90117-4, PMID: 2344368. The settings on record: pH 7.5.
The nature of series [13]: method code SF-HPLC, from DOI: 10.1016/j.ejmech.2003.12.002, PMID: 15051170.
Assay in series [14]: not given
The source holds these as a separate data set.

Series [15] is described as follows: method code SF-RC, from DOI: 10.1016/j.bmc.2006.11.022, PMID: 17293116. The settings on record: pH 7.4.
Assay in series [16]: not given
This is another data set of the same source.

For series [17] the following is noted: pH 7.4.
The nature of series [18]: method code SF-AS, from DOI: 10.1016/s0022-5347(24)07568-2, PMID: 4149453. The conditions noted are these: pH 7.5.
Assay in series [19]: not given
This is another data set of the same source.

Regarding `COC(=O)CCCCCC(=O)OCC(=O)C1(O)CCC2C3CCC4=CC(=O)CCC4(C)C3C(O)CC21C` (stereo not drawn), the logP in [1] was 3.7.
`C=CCCN1C=CCC(C(=O)OC2CCC3C4CCc5cc(O)ccc5C4CC23C)=C1` (stereo not drawn) had a logP of 3.96.
The compound `CC1N=C2C3=C(CCC(c4ccccc4)C3)C(C(=O)NCCO)=CN2C1C` (stereo not drawn) displayed a logP in series [2] of 2.81.
In series [3], `O=C(CNc1ccc(O)cc1)Nc1ccc(Cl)cc1C(=O)c1ccccc1` showed a logP of 3.5.
As for `Cc1cccc2c1OP(=O)(OCC1OC(n3cc(/C=C/Br)c(=O)[nH]c3=O)CC1OC(=O)C(N)C(C)C)OC2` (stereo not drawn), in series [4], the logP was -0.1.
In series [5] (pH 4.6), `Cn1nnnc1SCC1=C(C(=O)OCOC(=O)C(C)(C)C)N2C(=O)C(NC(=O)Cc3csc(N)n3)C2SC1` (stereo not drawn) came in with a logD of 1.36.
For the compound `COc1ccc(C(=O)CCCN2CCC(O)(c3ccc(Cl)cc3)CC2)cc1`, the logP in series [6] amounted to 2.9.
Regarding `Cc1cc(=O)c(C(=O)Nc2ccccc2Cl)c(C)n1CCc1ccccc1`, the logP in series [7] was determined as 2.79.
In series [8], `C#CC1(O)CC[C@H]2[C@@H]3CCC4=CC(=O)CC[C@]4(C)[C@H]3CC[C@@]21C` (stereo in doubt) showed a logP of 3.11.
With `Cc1ccc(N2C(=O)[C@H](CCCNS(=O)(=O)c3ccc(OC(F)(F)F)cc3)[C@H]2c2ccc(NS(=O)(=O)c3ccc(C)cc3)cc2)cc1`, the lipophilicity (logP) in series [9] came out at 3.78.
`O=C(Nc1ccc2ncnc(Nc3ccc(F)c(Cl)c3)c2c1)c1ccc(I)cc1` had a logP in [10] of 4.83.
Consider `COc1cc(OC)c2c(=O)c(OC)c(-c3ccc(OC)c(OC)c3)oc2c1`, for which, in [11], the logP was determined as 3.85.
In the case of `Cc1ccc(C(=O)CCCN2CCC(O)(c3ccc(Cl)cc3)CC2)cc1`, the logP in series [6] is 3.44.
Consider `COc1cccc2c1C(=O)c1c(O)c3c(c(O)c1C2=O)CC(O)(C(C)=O)CC3OC1CC(NC(C)=O)C(O)C(C)O1` (stereo not drawn), for which the logD in series [12] was 1.85.
For `CC(C)N1C=CCC(C(=O)OC2CCC3C4CCc5cc(O)ccc5C4CC23C)=C1` (stereo not drawn), the log partition coefficient (logP) turned out to be 4.6.
`COC(=O)C(C)NP(=O)(OCC1C=CC(n2cc(C)c(=O)[nH]c2=O)O1)Oc1c(OC)cccc1OC` (stereo not drawn) yielded a logP in [13] of 0.4.
For `Cc1cccc2c1OP(=O)(OCC1OC(n3cc(/C=C/Br)c(=O)[nH]c3=O)CC1OC(=O)C1CCCN1)OC2` (stereo not drawn), in [4], the logP was -0.4.
The compound `COc1ccc(CN2CCN(c3ccccc3)CC2)c(OC)c1OC` registered a logP in series [14] of 3.
Still for that read-out and setting: then `Fc1ccc(C(c2ccc(F)cc2)N2CCN(C/C=C/c3ccccc3)CC2)cc1`, with 4.83.
`CC1N=C2C3=C(CCC(c4ccccc4)C3)C(C(N)=O)=CN2C1C` (stereo not drawn) came in with a lipophilicity (logP) in series [2] of 3.21.
As for `O=C(CNc1ccccc1)Nc1ccc(Cl)cc1C(=O)c1ccccc1`, the logP in [3] amounted to 4.24.
With `CNc1ccc(-c2nc3ccc(-c4nc5ccccc5s4)cc3s2)cc1`, in series [15], the logD was determined as 2.34.
Regarding `O=C(Cn1ccc2cc(C(=O)O)ccc21)Oc1ccccc1-c1ccccc1`, in [16], the logP worked out at 3.1.
In [13], `COC(=O)C(C)NP(=O)(OCC1C=CC(n2cc(C)c(=O)[nH]c2=O)O1)Oc1ccccc1Br` (stereo not drawn) registered a logP of 0.95.
In turn, `CCCNC(=O)[C@H](O)[C@@]1(O)CC[C@H]2[C@@H]3CCC4=CC(=O)C=C[C@]4(C)[C@H]3[C@@H](O)C[C@@]21C` registered a logD in [17] of 1.43.
In [9], `Cc1ccc(N2C(=O)C(CCCNS(=O)(=O)c3ccc(OC(F)(F)F)cc3)C2c2ccc(NS(C)(=O)=O)cc2)cc1` (stereo not drawn) came in with a logP of 3.45.
In series [18], `CCCCCOC(=O)CC[C@H](NC(=O)c1ccc(N(C)Cc2cnc3nc(N)nc(N)c3n2)cc1)C(=O)OCCCCC` registered a logD of 1.33.
`CN1C=CCC(C(=O)O[C@H]2CC[C@H]3[C@@H]4CCc5cc(O)ccc5[C@H]4CC[C@]23C)=C1` showed a logP of 4.52.
As for `O=C(O)[C@H]1O[C@@H](Oc2c(-c3ccc(O)c(O)c3)oc3cc(O)cc(O)c3c2=O)[C@H](O)[C@@H](O)[C@@H]1O`, in series [11], the logP turned out to be 0.79.
The compound `Nc1ccc(C(=O)OCC(=O)Nc2ccc(Cl)cc2C(=O)c2ccccc2)cc1` yielded a logP in [3] of 4.78.
Consider `CNC(=O)C(O)C1(O)CCC2C3CCC4=CC(=O)C=CC4(C)C3C(O)CC21C` (stereo not drawn), for which the logD in series [17] amounted to 1.
In turn, `Cc1cccc2c1OP(=O)(OCC1OC(n3cc(C=CBr)c(=O)[nH]c3=O)CC1OC(=O)C(C)C)OC2` (stereo not drawn) showed a logP in series [4] of 2.4.
`CC1CN(C2C=CC(COP(=O)(NC(C)C(=O)O)Oc3ccc(Br)cc3Cl)O2)C(=O)NC1=O` (stereo not drawn) registered a logP in [13] of 1.81.
As for `C[C@]12C=CC(=O)C=C1CC[C@@H]1[C@@H]2[C@@H](O)C[C@@]2(C)[C@H]1CC[C@]2(O)[C@@H](O)C(=O)NCc1ccccc1`, the logD in [17] came out at 1.51.
In turn, `CNc1ccc(-c2nc3ccc(-c4nc5ccc(Cl)cc5s4)cc3s2)cc1` registered a logD in series [15] of 3.05.
In series [5] (pH 4.6), `CC(=O)OCC1=C(C(=O)OCOC(=O)C(C)(C)C)N2C(=O)C(NC(=O)Cc3cccs3)C2SC1` (stereo not drawn) gave a logD of 1.57.
As for `O=C(Nc1ccc2ncnc(Nc3ccc(F)c(Cl)c3)c2c1)c1cccc(I)c1`, the logP in series [10] was 5.58.
`COC(=O)CCC(NC(=O)c1ccc(N(C)Cc2cnc3nc(N)nc(N)c3n2)cc1)C(=O)OC` (stereo not drawn) showed a logD in series [18] of 0.54.
In series [7], `Cc1cc(=O)c(C(=O)Nc2ccccc2)c(C)n1CCc1ccccc1` yielded a logP of 2.04.
With `CCc1ccc(S(=O)(=O)NCCC[C@H]2C(=O)N(c3ccc(C)cc3)[C@@H]2c2ccc(NS(=O)(=O)c3ccc(C)cc3)cc2)cc1`, in series [9], the logP was 3.9.
Consider `CCCCCCCCc1ccc(OC(=O)Cn2ccc3cc(C(=O)O)ccc32)cc1`, for which, in series [16], the logP came out at 6.3.
As for `O=C(Nc1ccc2ncnc(Nc3ccc(F)c(Cl)c3)c2c1)c1ccc(F)cc1`, in series [10], the logP was 4.55.
As to `C[C@@H]1CC2=CC(=O)CC[C@@H]2[C@H]2CC[C@@]3(C)[C@@H](CC[C@]3(C)O)[C@@H]21`, the logP in series [19] came out at 3.19.
For `C[C@]12CCC(=O)C=C1CC[C@@H]1[C@@H]2[C@@H](O)C[C@@]2(C)[C@H]1CC[C@]2(O)C(=O)COC(=O)CCC(N)=O`, the logP in [1] turned out to be 1.43.
The compound `Cn1nnnc1SCC1=C(C(=O)OCOC(=O)C(C)(C)C)N2C(=O)C(NC(=O)C(O)c3ccccc3)C2SC1` (stereo not drawn) returned a logD in series [5] (pH 4.5) of 0.85.
In turn, `CCCCCCCCOC(=O)CCC(NC(=O)c1ccc(N(C)Cc2cnc3nc(N)nc(N)c3n2)cc1)C(=O)OCCCCCCCC` (stereo not drawn) had a logD in series [18] of 2.16.
For `O=C(OC[C@H]1O[C@@H](Oc2c(-c3ccc(O)c(O)c3)oc3cc(O)cc(O)c3c2=O)[C@H](O)[C@@H](O)[C@H]1O)c1cc(O)c(O)c(O)c1`, in series [11], the logP is -0.97.
The compound `C[C@]12CCC(=O)C=C1CC[C@@H]1[C@@H]2[C@@H](O)C[C@@]2(C)[C@H]1CC[C@]2(O)C(=O)COC(=O)CCCCCC(N)=O` registered a logP in [1] of 2.3.
`C#C[C@]1(O)CC[C@H]2[C@@H]3CCC4=CC(=O)CC[C@@H]4[C@H]3CC[C@@]21C` yielded a logP in [8] of 2.97.
Same read-out and setting: then `C#CC1(OC(=O)c2ccn(C)c2)CCC2C3CCC4=CC(=O)CCC4(C)C3CCC21C` (stereo not drawn), with 4.49.
`CCCCOc1cc(C(=O)NCCN(CC)CC)c2ccccc2n1` returned a logP in series [14] of 4.19.
Compound `CCc1cccc(CC)c1NC(=O)c1c(C)n(Cc2ccccc2)c(C)cc1=O` returned a logP in series [7] of 2.9.
In [19], `C[C@@H]1C[C@@]2(C)[C@@H](CC[C@@H]3[C@@H]2CC[C@]2(C)[C@@H](O)CC[C@@H]32)CC1=O` registered a logP of 3.99.
`CC(CCN1CCC(O)(c2ccc(Cl)cc2)CC1)c1ccc(F)cc1` (stereo not drawn) had a logP in series [6] of 4.02.
`CO[C@H]1CC[C@H]2[C@@H]3CC[C@H]4CC(=O)[C@H](C)C[C@]4(C)[C@H]3CC[C@]12C`: in series [19], the logP stood at 5.43.
Take `NC(=O)c1ccc2c(ccn2CC(=O)Oc2ccc(-c3ccccc3)cc2)c1`: the logP in [16] is 2.4.
The compound `CN(C)c1ccc(-c2nc3ccc(-c4nc5ccc(F)cc5s4)cc3s2)cc1` gave a logD in [15] of 2.99.
In series [2], `Cc1cn2c(n1)C1CC(c3ccccc3)CCC1C(C(=O)N(C)C)=C2` (stereo not drawn) yielded a logP of 2.77.

As usually defined, the logP is a log measure of how a compound divides between an organic and an aqueous phase. The low end stands for a more hydrophilic compound, the high end for a more lipophilic compound. Usually logD stands for lipophilicity at a set pH, counting ionised and neutral species. High values mean a more lipophilic compound, low ones a more hydrophilic compound.
